These are literature values, as cited in paper PMC9847679, “The anti-breast cancer stem cell properties of gold(I)-non-steroidal anti-inflammatory drug complexes” (Chemical Science, 2022).

The term IC50 denotes the concentration at which inhibition is half-maximal.

Each structure is given as a SMILES string.

What all share (set-up): method as in PMID 26806362, PMID 31209956, PMID 28932846
Series [1] concerns HMLER-shEcad mammospheres. Particulars: read-out: Mammosphere IC50; cited from earlier work.
The test system of series [2] is HMLER cells. Particulars: cited from earlier work.
The subject of series [3] is HMLER-shEcad cells. Particulars: cited from earlier work.

For `N.N.[Cl][Pt][Cl]` [Cisplatin, cisplatin], the 50% inhibitory concentration (IC50) in series [1] is 14 ± 2 µM; in series [2], 2.565 ± 0.021 µM; in series [3] it was 5.65 ± 0.304 µM.
